Reference: patent US20200024278A1, “COMPOSITION COMPRISING ANTIBIOTIC COMPOUND AND AN HETEROCYCLIC COMPOUND AND THEIR USE IN PREVENTING OR TREATING BACTERIAL INFECTIONS” (MUTABILIS, priority 2016, published 2020)

Assays:
Experiment in all cases: MIC, broth microdilution (CLSI), substance alone or ATB combined with compound at 4 or 8 μg/mL
ECO UFR39 = format: cell-based, E. coli; conditions: ECO UFR39; for MIC ATB combined with Example compound: compound @8 μg/ml
Method in brief: (§1)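 Potentiation format: antibiotic dilution series run with test compound held at 4 or 8 μg/mL, alongside compound-alone MICs. Broth microdilution per CLSI in ca-MHB, 16-20 h at 35° C.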

ECO 190317 = format: cell-based, E. coli; conditions: ECO 190317
Method in brief: as §1

SAU 29213 = format: cell-based, S. aureus; conditions: for MIC ATB combined with compound / MIC ATB combined with Example compound: compound @8 μg/ml, SAU 29213
Method in brief: as §1

PAE UFR90 = format: cell-based, P. aeruginosa; conditions: PAE UFR90; for MIC ATB combined with compound / MIC ATB combined with Example compound: compound @8 μg/ml
Method in brief: as §1

PAE 105250 = format: cell-based, P. aeruginosa; conditions: PAE 105250; for MIC ATB combined with compound / MIC ATB combined with Example compound: compound @8 μg/ml
Method in brief: as §1

PAE UFR48 = format: cell-based, P. aeruginosa; conditions: PAE UFR48; for MIC ATB combined with compound / MIC ATB combined with Example compound: compound @8 μg/ml
Method in brief: as §1

ECL P99 = format: cell-based, E. cloacae; conditions: ECL P99
Method in brief: as §1

ABA UFR161 = format: cell-based, A. baumannii; conditions: Acinetobacter baumannii, substance alone, read-out: MIC
Method in brief: as §1

ABA 19606 = format: cell-based, A. baumannii; conditions: Acinetobacter baumannii, substance alone, read-out: MIC
Method in brief: as §1

KPN BAA-1898 = format: cell-based, K. pneumoniae; conditions: KPN BAA-1898
Method in brief: as §1

KPN 6299 = format: cell-based, K. pneumoniae; conditions: MIC of CIP, compound @8 μg/ml
Method in brief: as §1

KPN UFR42 = format: cell-based, K. pneumoniae; conditions: KPN UFR42; for MIC ATB combined with Example compound: compound @8 μg/ml
Method in brief: as §1

SPN 49619 = format: cell-based, S. pneumoniae; conditions: SPN 49619; for MIC ATB combined with compound / MIC ATB combined with Example compound: compound @8 μg/ml
Method in brief: as §1

[1] = Escherichia coli, substance alone, read-out: MIC
[2] = Pseudomonas aeruginosa, substance alone, read-out: MIC

## NC[C@H]1C=C(c2cnco2)[C@@H]2CN1C(=O)N2OS(=O)(=O)[O-].O=C(O)C(F)(F)F.[Na+] (relative stereo) [Example 1, sodium and 2,2,2-trifluoroacetate [trans-2-(azaniumylmethyl)-4-oxazol-5-yl-7-oxo-1,6-diazabicyclo[3.2.1]oct-3-en-6-yl] sulfate]
ECO UFR39; [1]
  MIC: 0.031 µg/mL
ECO UFR39; MIC of CIP
  MIC ATB combined with Example compound: <0.031 µg/mL
ECO UFR39; MIC of CPO
  MIC ATB combined with Example compound: <0.031 µg/mL
ECO 190317; [1]
  MIC: 0.031 µg/mL
ECO 190317; MIC of CIP, compound @8 μg/ml
  MIC ATB combined with Example compound: <0.031 µg/mL
SAU 29213; ATB ATM
  MIC ATB combined with compound: >32 µg/mL
SAU 29213; ATB FEP
  MIC ATB combined with compound: 4 µg/mL
SAU 29213; ATB FOS
  MIC ATB combined with compound: 1 µg/mL
SAU 29213; ATB MEM
  MIC ATB combined with compound: 0.125 µg/mL
SAU 29213; ATB PIP
  MIC ATB combined with compound: 5 µg/mL
SAU 29213; MIC of CIP
  MIC ATB combined with Example compound: 0.5 µg/mL
SAU 29213; MIC of CLI
  MIC ATB combined with Example compound: 0.125 µg/mL
SAU 29213; MIC of CPO
  MIC ATB combined with Example compound: 1 µg/mL
SAU 29213; MIC of DAP
  MIC ATB combined with Example compound: 0.0078 µg/mL
SAU 29213; MIC of ERY
  MIC ATB combined with Example compound: 0.25 µg/mL
SAU 29213; MIC of LZD
  MIC ATB combined with Example compound: 2 µg/mL
SAU 29213; MIC of RIF
  MIC ATB combined with Example compound: 0.0078 µg/mL
SAU 29213; MIC of SYN
  MIC ATB combined with Example compound: 0.5 µg/mL
SAU 29213; MIC of VAN
  MIC ATB combined with Example compound: 1 µg/mL
SAU 29213; Staphylococcus aureus, substance alone, SAU 29213 (MSSA 29213), read-out: MIC
  MIC: > 32 µg/mL
PAE UFR90; ATB ATM
  MIC ATB combined with compound: <0.031 µg/mL
PAE UFR90; ATB FEP
  MIC ATB combined with compound: <0.031 µg/mL
PAE UFR90; ATB FOS
  MIC ATB combined with compound: <0.125 µg/mL
PAE UFR90; ATB MEM
  MIC ATB combined with compound: <0.031 µg/mL
PAE UFR90; ATB PIP
  MIC ATB combined with compound: <0.031 µg/mL
PAE UFR90; MIC of CIP
  MIC ATB combined with Example compound: <0.031 µg/mL
PAE UFR90; MIC of CPO
  MIC ATB combined with Example compound: <0.031 µg/mL
PAE UFR90; [2]
  MIC: 0.5 µg/mL
PAE 105250; ATB ATM
  MIC ATB combined with compound: <0.031 µg/mL
PAE 105250; ATB FEP
  MIC ATB combined with compound: <0.031 µg/mL
PAE 105250; ATB FOS
  MIC ATB combined with compound: 4 µg/mL
PAE 105250; ATB MEM
  MIC ATB combined with compound: <0.031 µg/mL
PAE 105250; ATB PIP
  MIC ATB combined with compound: <0.031 µg/mL
PAE 105250; MIC of CIP
  MIC ATB combined with Example compound: <0.031 µg/mL
PAE 105250; MIC of CPO
  MIC ATB combined with Example compound: <0.031 µg/mL
PAE 105250; [2]
  MIC: > 32 µg/mL
PAE UFR48; ATB ATM
  MIC ATB combined with compound: <0.031 µg/mL
PAE UFR48; ATB FEP
  MIC ATB combined with compound: <0.031 µg/mL
PAE UFR48; ATB FOS
  MIC ATB combined with compound: 2 µg/mL
PAE UFR48; ATB MEM
  MIC ATB combined with compound: <0.031 µg/mL
PAE UFR48; ATB PIP
  MIC ATB combined with compound: <0.031 µg/mL
PAE UFR48; MIC of CIP
  MIC ATB combined with Example compound: <0.031 µg/mL
PAE UFR48; MIC of CPO
  MIC ATB combined with Example compound: <0.031 µg/mL
PAE UFR48; [2]
  MIC: 4 µg/mL
ECL P99; Enterobacter cloacae, substance alone, read-out: MIC
  MIC: 0.031 µg/mL
ECL P99; MIC of CIP, compound @8 μg/ml
  MIC ATB combined with Example compound: <0.031 µg/mL
ABA UFR161
  MIC: > 32 µg/mL
ABA 19606
  MIC: > 32 µg/mL
KPN BAA-1898; Klebsiella pneumoniae, BAA1898, substance alone, read-out: MIC
  MIC: > 32 µg/mL
KPN BAA-1898; MIC of CIP, compound @8 μg/ml
  MIC ATB combined with Example compound: 16 µg/mL
KPN 6299
  MIC ATB combined with Example compound: 32 µg/mL
KPN UFR42; Klebsiella pneumoniae, substance alone, read-out: MIC
  MIC: > 32 µg/mL
KPN UFR42; MIC of CIP
  MIC ATB combined with Example compound: >32 µg/mL
KPN UFR42; MIC of CPO
  MIC ATB combined with Example compound: 16 µg/mL
SPN 49619; ATB ATM
  MIC ATB combined with compound: >32 µg/mL
SPN 49619; ATB FEP
  MIC ATB combined with compound: 0.063 µg/mL
SPN 49619; ATB FOS
  MIC ATB combined with compound: 32 µg/mL
SPN 49619; ATB MEM
  MIC ATB combined with compound: 0.063 µg/mL
SPN 49619; ATB PIP
  MIC ATB combined with compound: 0.5 µg/mL
SPN 49619; MIC of CIP
  MIC ATB combined with Example compound: 1 µg/mL
SPN 49619; MIC of CLI
  MIC ATB combined with Example compound: 0.063 µg/mL
SPN 49619; MIC of CPO
  MIC ATB combined with Example compound: <=0.031 μg/mL
SPN 49619; MIC of DAP
  MIC ATB combined with Example compound: 0.125 µg/mL
SPN 49619; MIC of ERY
  MIC ATB combined with Example compound: 0.063 µg/mL
SPN 49619; MIC of LZD
  MIC ATB combined with Example compound: 1 µg/mL
SPN 49619; MIC of RIF
  MIC ATB combined with Example compound: 0.063 µg/mL
SPN 49619; MIC of SYN
  MIC ATB combined with Example compound: 0.5 µg/mL
SPN 49619; MIC of VAN
  MIC ATB combined with Example compound: 0.25 µg/mL
SPN 49619; Streptococcus pneumoniae, substance alone, read-out: MIC
  MIC: > 32 µg/mL
